Several values for one entry are separate records, joined by “and”; a condition that tells them apart may be missing. Equal entries are not always repeated.
Target: T1, Human NHE3 (Homo sapiens, UniProt P48764)
T1 construct: myc
T1 sequence (P48764 26-834): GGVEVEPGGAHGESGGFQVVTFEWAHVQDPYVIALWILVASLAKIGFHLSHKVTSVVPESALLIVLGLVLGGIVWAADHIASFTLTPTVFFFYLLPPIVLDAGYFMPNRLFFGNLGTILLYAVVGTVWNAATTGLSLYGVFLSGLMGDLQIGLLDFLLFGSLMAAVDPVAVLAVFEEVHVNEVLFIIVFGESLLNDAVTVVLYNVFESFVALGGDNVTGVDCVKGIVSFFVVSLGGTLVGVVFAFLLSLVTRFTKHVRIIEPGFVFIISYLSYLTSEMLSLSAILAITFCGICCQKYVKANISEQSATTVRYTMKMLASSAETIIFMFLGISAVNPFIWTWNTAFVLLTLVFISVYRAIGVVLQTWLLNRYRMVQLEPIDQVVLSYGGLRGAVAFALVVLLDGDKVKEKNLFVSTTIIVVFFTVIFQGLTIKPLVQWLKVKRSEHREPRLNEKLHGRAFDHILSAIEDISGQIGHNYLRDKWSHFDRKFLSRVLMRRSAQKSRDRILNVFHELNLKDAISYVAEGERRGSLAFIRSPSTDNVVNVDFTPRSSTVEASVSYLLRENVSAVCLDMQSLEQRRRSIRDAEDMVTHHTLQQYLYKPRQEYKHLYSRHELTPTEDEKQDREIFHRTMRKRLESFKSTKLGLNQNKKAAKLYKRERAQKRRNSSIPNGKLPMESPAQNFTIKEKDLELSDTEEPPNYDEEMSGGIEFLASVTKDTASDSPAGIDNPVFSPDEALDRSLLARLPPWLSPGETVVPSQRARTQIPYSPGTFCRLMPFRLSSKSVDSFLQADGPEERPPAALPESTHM
Assay: NHE3 activity assay (intracellular pH recovery, BCECF-AM) in human NHE3 over-expressing NHD C8 cells
Assay type: cell-based
Description: Sodium hydrogen exchanger activity specific to NHE3 was achieved by overexpressing human NHE3 in an endogenously NHE-deficient cell line generated by chemical-induced mutagenesis. After the mutagenesis, NHE-deficient cells were selected by loading lithium into the cells and then exposing them to an acidic extracellular environment. Under these conditions, NHE exchanges intracellular lithium for extracellular protons, thus only NHE-deficient cells can avoid a toxic intracellular acidosis and survive. Dede cells (ATCC ccl-39), grown to 50% confluence in McCoy’s 5A medium (GE Healthcare) with 10% FBS and antibiotic/antimycotic solution (GE Healthcare) in a T75 flask, were treated with 500 μg/mL of EMS (ethyl methanesulfonate, Sigma-Aldrich) in medium for 20 hours for mutagenesis and washed twice with phosphate buffered saline (PBS). The cells were then trypsinized, plated in two T175 flasks and cultured in fresh medium without EMS for 2 days. […] The intracellular pH change is then measured by an intracellular pH-sensitive dye, 2’,7’-Bis-(2-carboxyethyl)-5(and-6)-carboxyfluorescein, acetoxymethyl ester (BCECF-AM, ThermoFisher Scientific) upon reintroduction of sodium. […] The plate was immediately read for fluorescence at the excitation wavelength of 505 nm and the emission wavelength of 550 nm using a kinetic method by Molecular Device, SpectraMax i3. […]

- slope of the concentration-response curve (4-parameter fit, representative curve): 0.8
- IC50 (geometric mean of individual IC50, n=7): 5.8 nM and 5.76 nM
SMILES: CN1Cc2c(Cl)cc(Cl)cc2[C@H](c2cccc(S(=O)(=O)NCCOCCOCCN/C(=N\C(N)=O)NCCCCN/C(=N/C(N)=O)NCCOCCOCCNS(=O)(=O)c3cccc([C@@H]4CN(C)Cc5c(Cl)cc(Cl)cc54)c3)c2)C1.Cl.Cl [LY3304000, (Z)-[[4-[[(Z)-N’-carbamoyl-N-[2-[2-[2-[[3-[(4S)-6,8-dichloro-2-methyl-3,4-dihydro-1H-isoquinolin-4-yl]phenyl]sulfonylamino]ethoxy]ethoxy]ethyl]carbamimidoyl]amino]butylamino]-[2-[2-[2-[[3-[(4S)-6,8-dichloro-2-methyl-3,4-dihydro-1H-isoquinolin-4-yl]phenyl]sulfonylamino]ethoxy]ethoxy]ethylamino]methylene]urea dihydrochloride]

From article PMC10817170, “Effect of an NHE3 inhibitor in combination with an NPT2b inhibitor on gastrointestinal phosphate absorption in Rodent models” (PLOS ONE, 2024)
